These results are taken from US10633375B2, “Oxopicolinamide derivative, preparation method therefor and pharmaceutical use thereof” (Jiangsu Hengrui Medicine Co., Ltd., priority 2016, dated 2020).

In the assay the target is Coagulation Factor XIa protease (Homo sapiens (Human), UniProt P03951). Nature of the assay: Inhibition of Factor XIa detected by absorption photometry. Format: biochemical. The conditions noted are these: absorbance at 405 nm, 10 minutes at 37° C. On the procedure: Test Example 1: Biological Activity of the Compounds of the Present Invention on
The Inhibition of Factor XIa Detected by Absorption Photometry
1. Experimental Materials
Enzyme: Coagulation Factor XIa protease (Abcam, Art. No ab62411)
Substrate: Coagulation Factor XIa specific substrate (HYPHEN1310 med, Art. No. Biophen cs-21(66))
2. Experimental Procedure
20 mM of test compound dissolved in 100% DMSO was diluted to 200, 20, 2, 0.2, 0.02, 0.002 μM with 100% DMSO; 1 μl of the compound was added to each well in a 384-well plate, blank and control wells were replaced with DMSO. The plate was centrifuged to remove the compound to the bottom. 10 μl (2.5 μg/ml) of FXIa enzyme solution was added to each well, and 10 μl of buffer was added to the blank well. The plate was centrifuged to remove the enzyme solution to the bottom.
Finally, 10 μl of 2 mM substrate were added to each well, and the plate was centrifuged to remove the substrate solution to the bottom.
The plate was incubated for 10 minutes at 37° C.; and then the absorbance was measured at 405 nm.

Chain of Coagulation Factor XIa protease (P03951 388-625): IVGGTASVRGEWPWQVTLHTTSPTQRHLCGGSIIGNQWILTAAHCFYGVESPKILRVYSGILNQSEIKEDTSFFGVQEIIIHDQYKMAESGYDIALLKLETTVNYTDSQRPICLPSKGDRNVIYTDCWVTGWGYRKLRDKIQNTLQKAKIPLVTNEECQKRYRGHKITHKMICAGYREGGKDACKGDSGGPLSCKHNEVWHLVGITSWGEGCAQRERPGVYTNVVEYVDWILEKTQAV
Chain of Coagulation Factor XIa protease (P03951 19-387 partner): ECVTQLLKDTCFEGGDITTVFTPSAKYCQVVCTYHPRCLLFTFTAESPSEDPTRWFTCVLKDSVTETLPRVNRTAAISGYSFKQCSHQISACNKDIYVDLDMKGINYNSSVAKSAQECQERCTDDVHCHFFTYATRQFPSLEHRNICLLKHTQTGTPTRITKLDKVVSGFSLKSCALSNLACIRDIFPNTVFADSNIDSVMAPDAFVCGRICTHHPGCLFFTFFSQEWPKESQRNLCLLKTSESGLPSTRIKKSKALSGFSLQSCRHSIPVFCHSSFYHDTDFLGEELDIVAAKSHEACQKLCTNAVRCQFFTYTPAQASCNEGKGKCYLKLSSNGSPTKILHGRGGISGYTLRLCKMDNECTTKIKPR

The IC50 is the concentration needed to halve the response being measured. Take `COc1cn(C(CCOC(C)(C)C)C(=O)Nc2ccc(C(=O)O)cc2)c(=O)cc1-c1c(C(C)=O)ccc(Cl)c1F` (stereo not shown) [Example 120, 44-(2-(4-(6-acetyl-3-chloro-2-fluorophenyl)-5-methoxy-2-oxopyridin-1(2H)-yl)-4-(tert-butoxy)butanamido)benzoic acid]: the IC50 is 49 nM.
Compound `COc1cn([C@H](Cc2ccccc2)C(=O)Nc2ccc3nn(C)cc3c2)c(=O)cc1-c1cc(Cl)ccc1C(C)=O` [Example 19, (R)-2-(4-(2-acetyl-5-chlorophenyl)-5-methoxy-2-oxopyridin-1(2H)-yl)-N-(2-methyl-2H-indazol-5-yl)-3-phenylpropanamide] showed an IC50 of 5690 nM.
The same measure for `COc1cn([C@H](Cc2cccnc2)C(=O)Nc2ccc(C(=O)O)cc2)c(=O)cc1-c1cc(Cl)ccc1C(C)=O` [Example 83, (R)-4-(2-(4-(2-acetyl-5-chlorophenyl)-5-methoxy-2-oxopyridin-1 (2H)-yl)-3-(pyridin-3-yl)propanamido)benzoic acid]: greater than 10000 nM; for `COc1cn(C(CC2CCC2)C(=O)Nc2ccc(C(=O)O)cc2)c(=O)cc1-c1c(C(C)=O)ccc(Cl)c1F` (stereo not shown) [Example 159, 4-(2-(4-(6-acetyl-3-chloro-2-fluorophenyl)-5-methoxy-2-oxopyridin-1(2H)-yl)-3-cyclobutylpropanamido)benzoic acid]: 33 nM; for `COc1cn(C(Cc2ccccc2Br)C(=O)Nc2ccc(C(=O)O)cc2)c(=O)cc1-c1cc(Cl)ccc1C(C)=O` (stereo not shown) [Example 64, 4-(2-(4-(2-acetyl-5-chlorophenyl)-5-methoxy-2-oxopyridin-1 (2H)-yl)-3-(2-bromophenyl)propanamido)benzoic acid]: 58 nM.
With `COc1cn(C(CC2CCCCO2)C(=O)Nc2ccc(C(=O)O)cc2)c(=O)cc1-c1cc(Cl)ccc1C(C)=O` (stereo not shown) [Example 176], the 50% inhibitory concentration (IC50) came to 71 nM.
The same measure for `COc1cn(C(Cc2ccccc2)C(=O)Nc2ccc(C(=O)O)cc2)c(=O)cc1-c1cc(Cl)ccc1C(=O)C1CC1` (stereo not shown) [Example 41, 4-(2-(4-(5-chloro-2-(cyclopropanecarbonyl)phenyl)-5-methoxy-2-oxopyridin-1(2H)-yl)-3-phenylpropanamido)benzoic acid]: 39 nM.
`CCC(=O)c1ccc(Cl)cc1-c1cc(=O)n([C@H](Cc2ccccc2)C(=O)Nc2ccc(C(N)=O)cc2)cc1OC` [Example 25, (R)-4-(2-(4-(5-chloro-2-propionylphenyl)-5-methoxy-2-oxopyridin-1(2H)-yl)-3-phenylpropanamido)benzamide]: half-maximal inhibition (IC50) required 1520 nM.
The same measure for `CCC(=O)c1ccc(Cl)cc1-c1cc(=O)n(C(Cc2ccccc2)C(=O)Nc2ccc3ncncc3c2)cc1OC` (stereo not shown) [Example 23, 2-(4-(5-chloro-2-propionylphenyl)-5-methoxy-2-oxopyridin-1(2H)-yl)-3-phenyl-N-(quinazolin-6-yl)propanamide]: 24 nM; for `CCC(=O)c1ccc(Cl)cc1-c1cc(=O)n(C(CCOC(C)(C)C)C(=O)Nc2ccc3nccnc3c2)cc1OC` (stereo not shown) [Example 113, 4-(tert-butoxy)-2-(4-(5-chloro-2-propionylphenyl)-5-methoxy-2-oxopyridin-(2H)-yl)-N-(quinoxalin-6-yl)butanamide]: 33 nM; for `CCC(=O)c1ccc(Cl)cc1-c1cc(=O)n(C(Cc2ccccc2)C(=O)Nc2ccc3cn[nH]c3c2)cc1OC` (stereo not shown) [Example 27, 2-(4-(5-chloro-2-propionylphenyl)-5-methoxy-2-oxopyridin-1(2H)-yl)-N-(1H-indazol-6-yl)-3-phenylpropanamide]: 66 nM.
The value for `COc1cn([C@H](Cc2ccn(C3CC3)n2)C(=O)Nc2ccc(C(=O)O)cc2)c(=O)cc1-c1cc(Cl)ccc1C(C)=O` [Example 95, (R)-4-(2-(4-(2-acetyl-5-chlorophenyl)-5-methoxy-2-oxopyridin-(2H)-yl)-3-(1-cyclopropyl-1H-pyrazol-3-yl)propanamido)benzoic acid] was 7510 nM.
The value for `COc1cn(C(Cc2ccccc2F)C(=O)Nc2ccc(C(=O)O)cc2)c(=O)cc1-c1cc(Cl)ccc1C(C)=O` (stereo not shown) [Example 68, 4-(2-(4-(2-acetyl-5-chlorophenyl)-5-methoxy-2-oxopyridin-1(2H)-yl)-3-(2-fluorophenyl)propanamido)benzoic acid] was 47 nM; that for `CCC(=O)c1ccc(Cl)cc1-c1cc(=O)n(C(CCOC(C)(C)C)C(=O)Nc2ccc3ncncc3c2)cc1OC` (stereo not shown) [Example 121, 4-(tert-butoxy)-2-(4-(5-chloro-2-propionylphenyl)-5-methoxy-2-oxopyridin-1(2H)-yl)-N-(quinazolin-6-yl)butanamide] was 67 nM.
The compound `COc1cn(C(Cc2cccnc2)C(=O)Nc2ccc(C(=O)O)cc2)c(=O)cc1-c1cc(Cl)ccc1C(C)=O` (stereo not shown) [Example 82, 4-(2-(4-(2-acetyl-5-chlorophenyl)-5-methoxy-2-oxopyridin-1(2H)-yl)-3-(pyridin-3-yl)propanamido)benzoic acid] registered an IC50 of 68 nM.
The same measure for `COc1cn(C(Cc2ccc(F)cc2F)C(=O)Nc2ccc(C(=O)O)cc2)c(=O)cc1-c1cc(Cl)ccc1C(C)=O` (stereo not shown) [Example 65, 4-(2-(4-(2-acetyl-5-chlorophenyl)-5-methoxy-2-oxopyridin-1(2H)-yl)-3-(2,4-difluorophenyl)propanamido)benzoic acid]: 43 nM.
The compound `COc1ccccc1CC(C(=O)Nc1ccc(C(=O)O)cc1)n1cc(OC)c(-c2cc(Cl)ccc2C(C)=O)cc1=O` (stereo not shown) [Example 78, 4-(2-(4-(2-acetyl-5-chlorophenyl)-5-methoxy-2-oxopyridin-1(2H)-yl)-3-(2-methoxyphenyl)propanamido)benzoic acid] displayed an IC50 of 72 nM.
The value for `COc1cn([C@H](Cc2ccn(C)n2)C(=O)Nc2ccc(C(=O)O)cc2)c(=O)cc1-c1cc(Cl)ccc1C(C)=O` [Example 102, (R)-4-(2-(4-(2-acetyl-5-chlorophenyl)-5-methoxy-2-oxopyridin-1(2H)-yl)-3-(1-methyl-1H-pyrazol-3-yl)propanamido)benzoic acid] was 8210 nM; that for `COc1cn(C(Cc2cccc(C#N)c2)C(=O)Nc2ccc(C(=O)O)cc2)c(=O)cc1-c1cc(Cl)ccc1C(C)=O` (stereo not shown) [Example 88, 4-(2-(4-(2-acetyl-5-chlorophenyl)-5-methoxy-2-oxopyridin-1(2H)-yl)-3-(3-cyanophenyl)propanamido)benzoic acid] was 74 nM.
In the case of `COc1cn(C(Cc2ccccc2)C(=O)Nc2ccc3nccnc3c2)c(=O)cc1-c1cc(Cl)ccc1C(C)=O` (stereo not shown) [Example 45, 2-(4-(2-acetyl-5-chlorophenyl)-5-methoxy-2-oxopyridin-1(2H)-yl)-3-phenyl-N-(quinoxalin-6-yl)propanamide], the IC50 turned out to be 69 nM.
In the case of `COc1cn(C(CCOC(C)(C)C)C(=O)Nc2ccc(C(=O)O)cc2)c(=O)cc1-c1cc(Cl)ccc1C(C)=O` (stereo not shown) [Example 110, 4-(2-(4-(2-acetyl-5-chlorophenyl)-5-methoxy-2-oxopyridin-1(2H)-yl)-4-(tert-butoxy)butanamido)benzoic acid], the concentration for half-maximal inhibition (IC50) stood at 53 nM.
`COc1cn(C(CCOC2CCC2)C(=O)Nc2ccc(C(=O)O)cc2)c(=O)cc1-c1cc(Cl)ccc1C(C)=O` (stereo not shown) [Example 162, 4-(2-(4-(2-acetyl-5-chlorophenyl)-5-methoxy-2-oxopyridin-1(2H)-yl)-4-cyclobutoxybutanamido)benzoic acid] yielded an IC50 of 35 nM.
